For orientation: AUC means concentration integrated over time. In general, Cmax refers to the peak of the concentration-time curve.

Results on four compounds are retold here after patent US11357834B2, “Recombinant α-galactosidase A for treatment of Fabry disease” (Amicus Therapeutics, Inc., priority 2017, dated 2022).

One data set has as its system GL-3. Put plainly: GL-3 one week after single IV administration (Example 7). It counts as in vivo, Gla KO mice. Conditions: 1 mg/kg enzyme IV, one week post-administration. The method, then:
Gla KO mice were administered 1 mg/kg of enzyme IV and GL-3 measured one week post-administration.

Data set [1] concerns GL-3 and plasma lyso-Gb3. In words: Repeat administration efficacy, two bi-weekly IV administrations (Example 9). It counts as in vivo, Gla KO mice. The following applies: enzyme alone, 1 to 10 mg/kg. How it is done:
The efficacy of rhα-Gal A 01-003 with and without migalastat and Fabrazyme (agalsidase beta) were compared. Enzyme was administered via a bolus infusion into Gla KO mice with or without co-formulation with 3 mg/kg migalastat. ˜16 week old male Gla KO mice (n=8; 72 in total) were given two bi-weekly IV administrations.

The subject of data set [2] is GL-3 and plasma lyso-Gb3. Put plainly: Single bolus IV administration efficacy, necropsy 7 days after dose (Example 10). It counts as in vivo, Gla KO mice. The method, then: The efficacy of rhα-Gal A 01-003 with and without migalastat and Fabrazyme (agalsidase beta) were compared. Enzyme was administered via a single bolus infusion into Gla KO mice with or without co-formulation with migalastat. ˜18 week old male Gla KO mice (7 per group) were given a single bolus IV administration and necropsies were performed 7 days after dose. The treatment groups are shown in Table 15 and the results are shown in FIGS. 21A-21D and Tables 16-19.

For data set [3], the system named is GL-3 and plasma lyso-Gb3. Put plainly: Substrate reduction seven days after single administration (Example 6). It counts as in vivo, Gla KO mice. The following applies: 3 mg/kg enzyme. How it is done:
The effect on substrate reduction when combining these enzymes in a co-formulation with migalastat was also assessed. […]
In addition to assessment of enzyme activity in tissues, the degree of substrate reduction seven days post-administration was determined.

A short description of data set [4]: Predicted human migalastat exposure after single IV dose and exposure margins. From the text: (§1) Selection of Doses in the Study: The current single dose levels were selected on the basis of predicted human PK following IV dosing, non-clinical safety margins, and target therapeutic migalastat exposures for efficacy.
Data set [5] is described as follows: General toxicology NOAEL, rat. Set-up: AUC: dose or concentration left out as unconfirmed. The following applies: in vivo.
Another data set is described as follows: in vivo. The following applies: monkey, 500 mg/kg/day.
Description: as §1

A short description of data set [6]: Phase 1 IV and oral migalastat HCl pharmacokinetics in healthy volunteers. It counts as in vivo, human.
Description: Healthy volunteers received migalastat HCl via the IV route of administration to evaluate safety, tolerability, and pharmacokinetics. Another study was performed to determine the absolute bioavailability of migalastat after an oral capsule dose as compared to an IV administered dose of migalastat HCl in healthy volunteers.
Type of Study: This Phase 1 study was a single-center study consisting of 2 designs. Cohorts 1, 2, and 3 were performed according to a randomized, double-blind, placebo-controlled, single ascending dose (SAD) IV study design to evaluate the safety, tolerability, and PK of IV administered migalastat HCl or IV administered placebo in healthy subjects. Cohort 4 was an open-label, randomized two-way crossover arm designed to assess the absolute bioavailability of orally administered migalastat HCl relative to IV administered migalastat HCl in healthy subjects.
Cohorts 1, 2, 3: Subjects in Cohorts 1, 2, and 3 received IV administered single ascending doses of migalastat HCl. Seven subjects were enrolled into each cohort (5 subjects randomized to migalastat HCl and 2 subjects randomized to placebo). Dosing of Cohorts 1, 2, and 3 was staggered to allow for safety and tolerability review before proceeding with the next group. Therefore, Cohorts 1, 2, and 3 were each divided into 2 sub-groups: Group A (2 subjects randomized to migalastat HCl and 1 subject randomized to placebo) and Group B (3 subjects randomized to migalastat HCl and 1 subject randomized to placebo). Subjects in Group B were dosed the day following completion of Group A dosing. Except for Cohort 3B, which was dosed 31 days after Cohort 3A because an interim PK review was performed on emerged data from Cohort 3A.
Cohort 4 was randomized such that 5 subjects received the oral formulation and 5 subjects received the IV formulation during Period 1, followed by the alternate formulation during Period 2. • *During Period 1, all Day −1 through Day 3 assessments were performed. ** The washout period was 7 days. *** During Period 2, subjects repeated all Day −1 through Day 3 assessments.
Subjects enrolled in Cohorts 1, 2, and 3 were randomized to receive one of the following doses of migalastat HCl (n=5) or placebo (n=2):
For data set [7] the following is noted: human, in vivo, po, 1250 mg.
For data set [8] the following is noted: cited from earlier work.

As for “rhα-Gal A 01-003: recombinant human α-galactosidase A produced by CHO cell clone 01-003”, in the data set with GL-3, the “α-Gal A substrate (GL-3) in heart and kidney” value is “able to reduce α-Gal A substrate in heart and kidney”. In the data set on GL-3 and plasma lyso-Gb3 [1], the “GL-3 in heart and kidney, dose-response” value was “good dose-response”; the “GL-3 in skin and plasma lyso-GB3, dose-response” value was “good dose-response”. In the data set with GL-3 and plasma lyso-Gb3 [2] (10 mg/kg), the “GL-3 levels Heart” value turned out to be 30.30 μg/g tissue, the “GL-3 levels Kidney” value is reported as 277 μg/g tissue, the “GL-3 levels Skin” value is reported as 149 μg/g tissue and the “Heart GL-3 % reduction compared to Fabrazyme (10 mg/kg)” value came out at 43.05%. Besides, in the data set with GL-3 and plasma lyso-Gb3 [2] (10 mg/kg), the “Kidney GL-3 % reduction compared to Fabrazyme (10 mg/kg)” value was found to be 1.42%, the “Plasma lyso-Gb3 % reduction compared to Fabrazyme (10 mg/kg)” value is given as 2.71%, the “Plasma lyso-Gb3 levels” value is on record as 28.7 ng/mL and the “Skin GL-3 % reduction compared to Fabrazyme (10 mg/kg)” value is on record as 28.02%. Besides, the “overall substrate reduction (GL-3 and lyso-Gb3)” value with GL-3 and plasma lyso-Gb3 [2] (rhα-Gal A 10 mg/kg) was “greater substrate reduction than an equivalent dose of Fabrazyme”.
With “Fabrazyme: homodimeric recombinant human α-Gal A marketed by Genzyme under the name Fabrazyme”, in the data set with GL-3 and plasma lyso-Gb3 [1], the “GL-3 in heart and kidney, dose-response” value was “good dose-response”; the “GL-3 in skin and plasma lyso-GB3, dose-response” value is given as “good dose-response”. In addition, in the data set on GL-3 and plasma lyso-Gb3 [2] (1 mg/kg), the “GL-3 levels Heart” value was found to be 183.23 μg/g tissue, the “GL-3 levels Kidney” value is 443 μg/g tissue, the “GL-3 levels Skin” value was 1465 μg/g tissue and the “Plasma lyso-Gb3 levels” value came to 122 ng/mL. In addition, in the data set with GL-3 and plasma lyso-Gb3 [2] (10 mg/kg), the “GL-3 levels Heart” value was 53.20 μg/g tissue, the “GL-3 levels Kidney” value came out at 281 μg/g tissue, the “GL-3 levels Skin” value is listed as 207 μg/g tissue and the “Plasma lyso-Gb3 levels” value turned out to be 29.5 ng/mL. Also, in the data set with GL-3 and plasma lyso-Gb3 [2] (25 mg/kg), the “GL-3 levels Heart” value is on record as 21.10 μg/g tissue, the “GL-3 levels Kidney” value was determined as 203 μg/g tissue, the “GL-3 levels Skin” value was 102 μg/g tissue and the “Plasma lyso-Gb3 levels” value is listed as 18.1 ng/mL.
Consider “rhα-Gal A 04-023: recombinant human α-galactosidase A produced by CHO cell clone 04-023”, for which the “plasma lyso-Gb3 compared to Fabrazyme alone (1 mg/kg)” value in the data set on GL-3 and plasma lyso-Gb3 [3] (seven days) is given as “significantly lower levels of plasma lyso-Gb3”. In the data set on GL-3 and plasma lyso-Gb3 [3] (seven days (FIG. 15A)), the “reduction of GL-3 in heart tissue compared to 1 mg/kg Fabrazyme” value was “significantly enhanced reduction of GL-3”. For the same compound, the “reduction in GL-3 in kidney” value with GL-3 and plasma lyso-Gb3 [3] (seven days (FIG. 15B)) is recorded as “enhanced substrate reduction”. Moreover, the “GL-3 in skin compared to Fabrazyme alone (1 mg/kg)” value in the data set on GL-3 and plasma lyso-Gb3 [3] (seven days (FIG. 15C)) is “significantly lower level of GL-3 in skin”.
Regarding `Cl.OC[C@H]1NC[C@H](O)[C@@H](O)[C@H]1O` [Migalastat HCl, migalastat HCl], in data set [4] (0.3 mg/kg IV), the “Fold Cover to AUC from human oral 1250 mg, Max” value is given as 62; the “Fold Cover to AUC from human oral 1250 mg, Median” value is recorded as 39; the “Fold Cover to AUC from human oral 1250 mg, Min” value is 15.5; the “Fold Cover to Cmax from human oral 1250 mg, Max” value is given as 61. In [4] (0.3 mg/kg IV), the “Fold Cover to Cmax from human oral 1250 mg, Median” value is recorded as 36; the “Fold Cover to Cmax from human oral 1250 mg, Min” value is 2.6; the “Fold Cover to NOAEL AUC, Monkey” value was 165; the “Fold Cover to NOAEL AUC, Rat” value was 134. Moreover, in data set [4] (0.3 mg/kg IV), the “Fold Cover to NOAEL Cmax, Monkey” value is 68 and the “Fold Cover to NOAEL Cmax, Rat” value is given as 65. In addition, in data set [4] (10.0 mg/kg IV), the “Fold Cover to AUC from human oral 1250 mg, Max” value is recorded as 1.89; the “Fold Cover to AUC from human oral 1250 mg, Median” value is 1.19; the “Fold Cover to AUC from human oral 1250 mg, Min” value is given as 0.47; the “Fold Cover to Cmax from human oral 1250 mg, Max” value was 1.81. In data set [4] (10.0 mg/kg IV), the “Fold Cover to Cmax from human oral 1250 mg, Median” value is on record as 1.07; the “Fold Cover to Cmax from human oral 1250 mg, Min” value was 0.08; the “Fold Cover to NOAEL AUC, Monkey” value is listed as 4.98; the “Fold Cover to NOAEL AUC, Rat” value was 4.05. For the same compound, in data set [4] (10.0 mg/kg IV), the “Fold Cover to NOAEL Cmax, Monkey” value was 2.02 and the “Fold Cover to NOAEL Cmax, Rat” value is given as 1.93. The AUC in data set [5] amounted to 249 µg·h/mL. Moreover, in data set [5] (1500 μg/kg/day), the “Cmax at Rat NOAEL” value is 23400 ng/mL. This compound also showed an AUC in “in vivo” of 306 µg·h/mL. The “maximum arithmetic mean plasma concentration, IV dosing relative to oral dosing” value in [6] (150 mg IV vs 150 mg oral) is recorded as “approximately 2 fold”. Further, the “time of maximum arithmetic mean plasma concentration after start of infusion” value in data set [6] (IV 150 mg, 2-hour infusion) is given as 2 h. Further, the “dose dependence of mean plasma concentration-time profiles” value in data set [6] (increasing IV doses 0.3 to 10 mg/kg) is given as “clear dose-dependent increase in plasma concentrations”. Also, the “time of maximum arithmetic mean plasma concentration after start of infusion” value in data set [6] (single 2-hour IV infusion, 0.3 to 10 mg/kg) turned out to be 2 h. In [7], the “Maximum observed individual AUC” value amounted to 115.9 µg·h/mL, the “Maximum observed individual Cmax” value came out at 21900 ng/mL, the “Median observed individual AUC” value turned out to be 73.2 µg·h/mL and the “Median observed individual Cmax” value is 13000 ng/mL. Besides, in data set [7], the “Minimum observed individual AUC” value came out at 28.9 µg·h/mL, the “Minimum observed individual Cmax” value was 4780 ng/mL and the “maximum exposure (AUC)” value worked out at 116 µg·h/mL. Further, the exposure linearity result in [8] (oral administrations, to 1250 mg) is given as “linear exposures”. Further, the “tissue uptake of active α-Gal A into skin” value in data set [8] (phase 2a, 23 Fabry patients, single oral 150 mg co-administered with 0.2, 0.5, and 1.0 mg/kg agalsidase) is given as “improved tissue uptake of active α-Gal A into skin”.
